{Amino} = amino group added with ABI Aminolink 2 reagent, used to attach Texas Red
Columns and labels:
Ras-G = test: Ras-12 single point mutation hybridization with 15-mer probes; type: binding
Text: In the Ras-12 example, 15-mer point mutation specific probes were electronically hybridized to 30-mer target sequences attached to the microlocations on test devices. The polarity at the microlocations was biased negative, and the hybrids were subjected to constant current for a given time, providing a defined power level which denatures the mis-match without affecting the perfect match.
Test devices were fabricated from microcapillary tubes as described previously in the specification. Attachment sequences Ras-G and Ras-T were periodate oxidized and covalently bound to the addressed microlocations.
Ras-G microlocation were then hybridized with Ras-1, Ras-2 or Ras-3. Ras-1 is the perfect match to Ras-G. Ras-2 is a one base pair mismatch (G-A). Ras-3 is a two base pair mismatch (G-A and G-T). The G-A mis-match produces the least destabilization to the DNA duplex, and is therefore the most difficult to distinquish from the perfect match.
Conventional hybridization was first carried out and the microlocations were examined fluorescently to measure to what extent complementary sequences were hybridized. The test devices (microcapillaries) were re-mounted and electronic hybridization was then carried out. […] The procedure and results are shown below: […]

ET-10AL capture sequence = test: Electronically controlled fluorescent DNA/dye (ethidium bromide) detection; type: binding; settings: peak ethidium bromide fluorescence after positive bias 0.05 mA, 0.03 Volt-Hours; capture ET-10AL
Procedure: Microcapillary test devices were prepared and hybridized as described in Example 2 and 3. Ethidium bromide (EB) was added to the buffer solution (˜0.05 mM EB final concentration) and the test devices were biased negative to concentrate EB (positively charged) at both the hybridized and un-hybridized microlocations. The test devices were observed by epifluorescece microscopy at 550 nm excitation and 600 nm emission.
The test devices were re-mounted biased positive
constant current at 0.05 mA for 0.03 Volt-Hours, to selectively remove the EB. Fluorescence at the un-hybridized microlocations diminished while the hybridized microlocations retained a very high level of EB fluorescence. The results are given below:
Fluorescent signal was measured using an ICCD imaging

[1] = test system: btr-RCA5 fluorescent DNA probe; test: Fluorescent DNA checkerboard addressing; settings: bias reversed every 6 seconds, 80 micron microlocations
[2] = Conductivity measurements of transport buffers; type: physicochemical; settings: for Average/Std. Deviation / Measurement 1 / Measurement 2 / Measurement 3: conductivity
[3] = test system: btrRCA5 to ATA5 capture oligonucleotide; test: Accumulation and electronic hybridization in test buffers; settings: for support of sequence specific electronic hybridization: in words
Procedure: Microelectronic Chips, Permeation Layer and Instrumentation—These have been described previously with the following exception. The permeation layer employed herein has an underlayer of agarose beneath the top streptavidin-containing agarose layer (approximately one micron in total thickness). To make the underlayer, […] glyoxal agarose (2%) was spun on at 2000 rpms for 20 sec prior to the application of the streptavidin-agarose layer. In brief, the 5580 series APEX chip used for these experiments consists of a 5×5 array of […] circular microelectrodes with […] microelectrodes at each corner of the array. Chips were mounted on a micromanipulator stage and the microelectrodes activated by a power supply and appropriately controlled relay switches. Fluorescently labeled oligonucleotides on the chip were visualized using oblique illumination with two 594 nm HeNe lasers and the images were quantified using either NIH Image or IPLab Spectrum software packages.
Accumulation and Hybridization—Two biotinylated capture oligonucleotides, ATA5 and ATA4 were electronically transported and localized at adjacent microelectrodes. The solution was removed and the chip washed 3-4× in test buffer. Buffers employed in these studies are listed in Table 3 and were utilized at the listed pH values and concentrations presented.
The L-isomers of amino acids were used, unless otherwise noted. The chip was equilibrated in test buffer for 5-10 min. Then fresh buffer containing 10 nM BODIPY-Texas Red labeled RCA5 (btrRCA5), an oligonucleotide complementary to ATA5 but not ATA4 (RS paper) was applied.
The […] microelectrodes were employed as cathodes and one microelectrode within the array used as the corresponding anode. Accumulation was assessed by sourcing a 500 nA constant current to individual microelectrodes for 30 sec and monitoring the accumulation of fluorescence at the positively-biased (anode) site in the microelectrode array. Signal arising from non-fluorescent sources (ie. thermal noise, etc.) was subtracted. Experiments examining the effect of different currents upon signal accumulation were conducted in a similar fashion except that the applied current varied from 100 nA to 1 mA. […] For the comparison between conductivities of various buffers, the data is presented as fold increase over initial fluorescence to account for chip-to-chip variation as well as laser illumination variations in signal levels. For other experiments, the data is presented as attomol product versus time, after converting^2 the observed fluorescence intensity to moles of labeled oligonucleotide.
Following accumulation at one microelectrode location, the buffer was removed and fresh buffer containing btrRCA5 applied. An adjacent microelectrode was then sourced in a similar fashion. Upon completion, the buffer was removed and the chip washed 5-7× with test buffer without btrRCA5. The pair of previously targeted microelectrodes were then illuminated and the fluorescence present at each site quantified. Control experiments utilized a bodipy-Texas Red labeled oligonucleotide complementary to ATA4 to verify the integrity and concentration of the ATA4 capture oligonucleotide. Percent hybridization efficiency was calculated as follows: (complementary oligonucleotide signal−noncomplementary signal)/(signal present immediately prior to the end of the applied current)×100.

[4] = Buffer conductivity and pH measurements; type: physicochemical; design: conductivity: unit not given here; settings: for conductivity: RT; for pH: in water at room temperature
Procedure: Buffer Conductivity and pH Measurements—The conductivities of test buffer solutions utilized for transport and hybridization were measured at RT using an Accumet 1.0 cm^−1 glass conductivity cell connected to an Accumet Model 50 pH/Ion/Conductivity meter (Fisher Scientific). Buffer pH values were obtained using an Accu-pHast variable temperature combination electrode and the same model meter.

DNA = DNA transport (accumulation) on the APEX chip; settings: in words, same field conditions
[5] = test system: target DNA to the specific capture DNA; test: DNA hybridization sensitivity on the APEX chip; settings: normal DNA
[6] = cited from earlier work; for pK1 / pK2 / pK3: Table 2; for pl: Table 3
[7] = Buffer capacity, pH and conductivity of buffers used on the APEX chip; settings: for PH: NaPO4: 20 mM adjusted to pH 7.4
[8] = test system: Reporter DNA to DNA1 or PNA1 capture; test: Hybridization of phosphodiester-linked oligonucleotides versus PNA analogues; settings: 50 mM buffer
[9] = molecular target: streptavidin/biotin DNA probe (Streptomyces avidinii, UniProt P22629); test: Streptavidin/biotin DNA probe capture affinity on the APEX chip; type: binding
[10] = not told

Chain of streptavidin/biotin DNA probe (P22629 25-183, species assumed): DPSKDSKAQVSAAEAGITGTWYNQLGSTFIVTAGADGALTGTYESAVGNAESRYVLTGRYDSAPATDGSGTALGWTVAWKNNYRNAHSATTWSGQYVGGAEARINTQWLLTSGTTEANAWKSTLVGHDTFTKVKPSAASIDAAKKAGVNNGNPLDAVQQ

In the case of “3′-CC-GCG-GCC-GCC-ACA-C-5′-(TR) (DNA CCGCGGCCGCCACAC; TR label, further chemistry not given here; listed 3' to 5') [Ras-1]”, the “signal ratio of perfect match (Ras-G/Ras-1) to 1 bp mis-match (Ras-G/Ras-2)” value (Ras-G; conventional hybridization, 5×SSC 15 minutes 40° C., washes) is reported as “about 10 to 1” and the “signal ratio of perfect match (Ras-G/Ras-1) to 1 bp mis-match (Ras-G/Ras-2)” value (Ras-G; electronic stringency control, 0.15 mA at 150 V for 4 minutes, 20° C.) is reported as > 100 to 1.
For “5′-Amino-CCT GCT CAT GAG TCT CTC (DNA CCTGCTCATGAGTCTCTC; DNA, 5' {Amino}, backbone not given here; further chemistry not fully specified) [ET-11AL]”, the “Normalized Signal” value (ET-10AL capture sequence) was >200.
For “5′-Amino-TGCGAGCTGCAGTCAGACAT (DNA TGCGAGCTGCAGTCAGACAT; DNA, 5' {Amino}, backbone not given here; further chemistry not fully specified) [ET-21A]”, the “Normalized Signal” value (ET-10AL capture sequence) was 1.
With `O=C([O-])CC(O)(CC(=O)[O-])C(=O)[O-].[Na+].[Na+].[Na+]` [3.3 mM NaCitrate, sodium citrate] the “checkerboard addressing and concentration of fluorescent DNA probe” value [1] was “Rapid (6 second) checkerboard addressing and concentration of the btr-RCA5 fluorescent DNA probe was demonstrated”, the “Average/Std. Deviation” value [2] was 986 +/− 38.1 μS/cm and the “Measurement 1” value [2] was 964 μS/cm. The “Measurement 2” value [2] was 1.03 mS/cm and the “Measurement 3” value [2] was 964 μS/cm.
In the case of `O=C([O-])CCC(=O)[O-].[Na+].[Na+]` [5 mM NaSuccinate, sodium succinate], the “checkerboard addressing and concentration of fluorescent DNA probe” value [1] is reported as “Rapid (6 second) checkerboard addressing and concentration of the btr-RCA5 fluorescent DNA probe was demonstrated”.
In the case of `O=S(=O)(O)CCN1CCN(CCO)CC1` [250 mM HEPES, HEPES], the “checkerboard addressing and concentration of fluorescent DNA probe” value [1] is reported as “Rapid (6 second) checkerboard addressing and concentration of the btr-RCA5 fluorescent DNA probe was demonstrated”, the “Average/Std. Deviation” value [2] is reported as 147.6 +/− 9.07 μS/cm and the “Measurement 1” value [2] is reported as 141 μS/cm. For the same compound, the “Measurement 2” value [2] was 144 μS/cm, the “Measurement 3” value [2] was 158 μS/cm and the “Average/Std. Deviation” value ([2]; listed as 25 mM HEPES) was 9.7 +/− 0.71 μS/cm. For the same compound, the “Measurement 1” value ([2]; listed as 25 mM HEPES) was 9.16 μS/cm, the “Measurement 2” value ([2]; listed as 25 mM HEPES) was 9.44 μS/cm and the “Measurement 3” value ([2]; listed as 25 mM HEPES) was 10.5 μS/cm.
In the case of `N[C@@H](CS)C(=O)O` [Cysteine], the “support of sequence specific electronic hybridization” value [3] is reported as “difficult to evaluate because of poor signal accumulation”, the conductivity ([4]; 50 mM) is reported as 9.0 +/− 0.9 and the pH ([4]; 50 mM) is reported as 5.08. The conductivity ([4]; 250 mM) was 21.8 +/− 4.4, the transport (DNA) was “excellent transport” and the conductivity [2] was ~23 μS/cm. For the same compound, the “Average/Std. Deviation” value [2] was 22.7 +/− 5.09 μS/cm, the “Measurement 1” value [2] was 27.4 μS/cm and the “Measurement 2” value [2] was 17.3 μS/cm. The “Measurement 3” value [2] was 23.5 μS/cm, the “Hybridization Sensitivity of DNA” value [5] was 7.5×10^10 targets and the pK1 [6] was “pK1 - 1.7”. The pK2 [6] was “pK2 - 8.3”, the pK3 [6] was “pK3 - 10.8” and the pl [6] was 5.02. The pI [6] was 5.02, the conductivity [7] was 25.0 μS and the PH [7] was 5.2.
With `NCCCC(=O)O` [GABA, g-amino-butyric acid] the “support of sequence specific electronic hybridization” value [3] was “neither GABA, b-alanine, nor glycine was capable of supporting sequence specific hybridization”, the conductivity ([4]; 50 mM) was 5.6 +/− 0.6 and the pH ([4]; 50 mM) was 6.76. For the same compound, the “DNA:DNA hybridization” value ([8]; 200 nA) was “no hybridization was observed”, the “PNA:DNA hybridization” value ([8]; 200 nA) was “Hybridization in GABA was seen” and the “hybridization with either PNA:DNA or DNA:DNA duplexes” value ([8]; 500 nA) was “lack of hybridization”. For the same compound, the pl [6] was 7.30.
For `NCCCC[C@H](N)C(=O)O` [Lysine], the “SA-Biotin T12 Sensitivity” value [9] is given as >7.5 × 10^10, the transport (DNA) is given as “fair transport” and the pK1 [6] is given as “pK1 - 2.2”. For the same compound, the pK2 [6] was “pK2 - 8.9”, the pK3 [6] was “pK3 - 10.3” and the pI [6] was 9.74. The conductivity [7] was 477.0 μS and the PH [7] was 9.6.
With `c1c[nH]cn1` [imidazole] the hybridization efficiency ([3]; [(specific hybridization)/(transported)] × 100) was 4.0, the transported ([3]; fluorescent signal at completion of electronic targeting, value +/− SEM, 50 mM buffer) was 528 +/− 63 and the specific hybridization ([3]; value +/− SEM, 50 mM buffer) was 21.2 +/− 6.6 attomol. For the same compound, the conductivity ([4]; 50 mM) was 17.6 +/− 1.6, the pH ([4]; 50 mM) was 9.08 and the “pH above the surface of the permeation layer” value [10] was > 5.
With water [Milli-Q water] the “checkerboard addressing and concentration of fluorescent DNA probe” value [1] was “Rapid (6 second) checkerboard addressing and concentration of the btr-RCA5 fluorescent DNA probe was demonstrated”.
